Where two headings read alike, the source gives them in different places.
Legend:
[1] = Hygroscopicity of the solid; type: physicochemical; conditions: free-flowing solid

CNC(=O)c1cc(Oc2ccc(NC(=O)Nc3ccc(Cl)c(C(F)(F)F)c3)cc2)ccn1 [Sorafenib dimethyl sulphoxide solvate, dimethyl sulphoxide solvate of 4-(4-{3-[-4-chloro-3-(trifluoromethyl)phenyl]ureido}phenoxy)-N^2-methylpyridine-2-carboxamide]
Change on heating in a vacuum oven (about 120° C. and about 135° C. for about 4 hours): Desolvation of sorafenib dimethyl sulphoxide solvate to sorafenib free base was observed | Change on heating in a vacuum oven (about 4 hours, temperature range of about 45° C. up to 110° C.): No change was observed | Temperature up to which the solid is stable towards heating (under reduced pressure): ≤ 110 °C | Hygroscopicity [1]: non-hygroscopic

Source: patent US8618305B2, “Sorafenib dimethyl sulphoxide solvate” (Ranbaxy Laboratories Limited, priority 2010, dated 2013)
